Results on 19 compounds are retold here after patent publication US10174037B2, “Dihydropyrazolopyrimidinone compounds as PDE2 inhibitors” (Merck Sharp & Dohme Corp., priority 2015, dated 2019).

Each structure is given as a SMILES string. Read-outs that look alike come from different tables or passages of the source.

For one test, the target named is Rhesus PDE2A3 (Macaca mulatta, UniProt B3VTJ2). The test can be described thus: PDE2 fluorescence polarization (IMAP FP) assay, rhesus PDE2A3. In kind it is biochemical, rhesus macaque.
Another test deals with human PDE2A1 (Homo sapiens (Human), UniProt O00408). The test can be described thus: PDE selectivity IMAP FP assay, human PDE2A1. In kind it is biochemical. As to conditions: Human PDE2. In short, it runs like this: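 IMAP fluorescence polarization assay; PDE2 substrate 50 nM FAM-cAMP containing 1000 nM cGMP, enzyme diluted for 20% substrate conversion, in 10 mM Tris HCl pH 7.2, 10 mM MgCl2, 1 mM DTT. Reaction 60 min at room temperature, stopped with IMAP binding solution; polarization read after 1 h. Ki reported.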

[1] abbreviates: Lab B, read-out: Rhesus PDE2 Ki (nM) Lab B.
The mark [2] stands for this setting: Lab B, read-out: Human PDE2 Ki (nM) Lab B.
Where [3] appears, read: Lab A, read-out: Rhesus PDE2 Ki (nM) Lab A.
Setting [4] is: Lab A, read-out: Human PDE2 Ki (nM) Lab A.

Chain of Rhesus PDE2A3 (B3VTJ2 1-941): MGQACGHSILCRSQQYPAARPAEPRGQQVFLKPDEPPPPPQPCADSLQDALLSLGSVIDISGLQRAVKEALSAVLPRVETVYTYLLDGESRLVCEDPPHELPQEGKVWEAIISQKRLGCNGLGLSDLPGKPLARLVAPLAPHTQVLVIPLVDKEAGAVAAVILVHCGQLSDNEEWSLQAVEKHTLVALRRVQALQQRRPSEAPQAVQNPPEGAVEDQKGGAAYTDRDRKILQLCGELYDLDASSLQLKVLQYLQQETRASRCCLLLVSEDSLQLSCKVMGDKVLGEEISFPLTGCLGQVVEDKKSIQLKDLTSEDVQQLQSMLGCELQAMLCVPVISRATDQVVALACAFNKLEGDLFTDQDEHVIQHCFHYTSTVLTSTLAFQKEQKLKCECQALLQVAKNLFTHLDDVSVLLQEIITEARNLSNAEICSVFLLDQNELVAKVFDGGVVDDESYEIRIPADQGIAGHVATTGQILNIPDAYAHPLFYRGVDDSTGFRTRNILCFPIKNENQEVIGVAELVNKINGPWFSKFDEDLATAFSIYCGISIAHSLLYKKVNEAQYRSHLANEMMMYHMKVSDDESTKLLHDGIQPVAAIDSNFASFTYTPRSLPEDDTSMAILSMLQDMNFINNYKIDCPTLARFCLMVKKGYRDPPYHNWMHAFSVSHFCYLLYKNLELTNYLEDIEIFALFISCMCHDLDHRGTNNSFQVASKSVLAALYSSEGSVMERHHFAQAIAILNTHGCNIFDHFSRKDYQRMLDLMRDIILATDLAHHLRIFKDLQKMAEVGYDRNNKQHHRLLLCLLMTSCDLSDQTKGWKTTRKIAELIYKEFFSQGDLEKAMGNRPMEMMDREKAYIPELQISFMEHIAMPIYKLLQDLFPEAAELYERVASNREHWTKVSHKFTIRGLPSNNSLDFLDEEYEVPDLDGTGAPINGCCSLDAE
Chain of human PDE2A1 (O00408 other isoform, or with tags, fused parts or gaps): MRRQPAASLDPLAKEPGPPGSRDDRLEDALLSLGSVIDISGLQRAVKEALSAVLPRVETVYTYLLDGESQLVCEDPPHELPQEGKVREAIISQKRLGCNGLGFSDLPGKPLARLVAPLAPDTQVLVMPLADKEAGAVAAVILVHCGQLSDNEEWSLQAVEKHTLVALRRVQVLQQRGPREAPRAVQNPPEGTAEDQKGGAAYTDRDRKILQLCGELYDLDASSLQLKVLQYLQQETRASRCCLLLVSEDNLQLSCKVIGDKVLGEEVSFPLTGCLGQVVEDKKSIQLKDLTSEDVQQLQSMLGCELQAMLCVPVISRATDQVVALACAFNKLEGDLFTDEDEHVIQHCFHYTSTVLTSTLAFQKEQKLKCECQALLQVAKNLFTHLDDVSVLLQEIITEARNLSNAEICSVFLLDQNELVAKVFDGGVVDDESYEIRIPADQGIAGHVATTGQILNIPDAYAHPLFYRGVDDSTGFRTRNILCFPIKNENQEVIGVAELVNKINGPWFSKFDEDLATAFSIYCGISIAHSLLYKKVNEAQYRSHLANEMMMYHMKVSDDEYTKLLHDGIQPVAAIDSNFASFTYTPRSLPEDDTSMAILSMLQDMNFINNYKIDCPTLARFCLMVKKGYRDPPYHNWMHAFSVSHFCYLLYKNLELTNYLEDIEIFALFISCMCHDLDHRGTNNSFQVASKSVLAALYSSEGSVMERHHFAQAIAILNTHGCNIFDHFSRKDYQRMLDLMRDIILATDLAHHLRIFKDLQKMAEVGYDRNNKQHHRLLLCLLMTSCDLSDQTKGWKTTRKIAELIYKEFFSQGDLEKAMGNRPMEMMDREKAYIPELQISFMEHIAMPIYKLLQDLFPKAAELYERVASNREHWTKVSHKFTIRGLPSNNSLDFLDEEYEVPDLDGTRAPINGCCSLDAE

In the case of `CC(C)C(c1ccc(C(C)(C)C)cc1)n1nc(CC(F)(F)F)c2c(=O)[nH]c(O)nc21` (single isomer, unassigned) [Example 260, (R)- or (S)-1-(1-(4-tert-Butylphenyl)-2-methylpropyl)-6-hydroxy-3-(2,2,2-trifluoroethyl)-1H-pyrazolo[3,4-d]pyrimidin-4(5H)-one], the Ki at Rhesus PDE2A3 (setting [1]) worked out at 26 nM; at human PDE2A1 (setting [2]), 25 nM.

Regarding `CC(c1ccc(C(F)(F)F)cc1)n1nc(C(F)(F)C(F)(F)F)c2c(=O)[nH]c(O)nc21` (single isomer, unassigned) [Example 266, (R)- or (S)-6-Hydroxy-3-(perfluoroethyl)-1-(1-(4-(trifluoromethyl)phenyl)ethyl)-1H-pyrazolo[3,4-d]pyrimidin-4(5H)-one], the inhibitory constant (Ki) at Rhesus PDE2A3 (setting [1]) turned out to be 14 nM; at human PDE2A1 (setting [2]), 13 nM.

Regarding `CC(c1ccc(OC(F)(F)F)cc1)n1nc(C(F)F)c2c(=O)[nH]c(O)nc21` (single isomer, unassigned) [Example 274, (S)- or (R)-3-(Difluoromethyl)-6-hydroxy-1-(1-(4-(trifluoromethoxy)phenyl)ethyl)-1H-pyrazolo[3,4-d]pyrimidin-4(5H)-one], the figures for the inhibition constant Ki on Rhesus PDE2A3 (setting [1]) and on human PDE2A1 (setting [2]) were 3.2 nM and 4 nM, respectively.

In the case of `CC(c1ccc(C(F)(F)F)c(F)c1)n1nc(C(F)F)c2c(=O)[nH]c(O)nc21` (single isomer, unassigned) [Example 278, (S)- or (R)-3-(Difluoromethyl)-1-(1-(3-fluoro-4-(trifluoromethyl)phenyl)ethyl)-6-hydroxy-1H-pyrazolo[3,4-d]pyrimidin-4(5H)-one], the results for the Ki at Rhesus PDE2A3 (setting [1]) and at human PDE2A1 (setting [2]) were 1.2 nM and 1.6 nM, respectively.

In the case of `O=c1[nH]c(O)nc2c1c(C(F)F)nn2C(c1ccc(C(F)(F)F)cc1)C1CC1` (single isomer, unassigned) [Example 279, (R)- or (S)-1-(Cyclopropyl(4-(trifluoromethyl)phenyl)methyl)-3-(difluoromethyl)-6-hydroxy-1H-pyrazolo[3,4-d]pyrimidin-4(5H)-one], the Ki at Rhesus PDE2A3 (setting [1]) worked out at 1.8 nM; on human PDE2A1 (setting [2]) it was 1.9 nM.

`CC(C)C(c1ccc(C(F)(F)F)cc1)n1nc(C(F)F)c2c(=O)[nH]c(O)nc21` (single isomer, unassigned) [Example 281, (R)- or (S)-3-(Difluoromethyl)-6-hydroxy-1-(2-methyl-1-(4-(trifluoromethyl)phenyl)propyl)-1H-pyrazolo[3,4-d]pyrimidin-4(5H)-one]: the Ki on Rhesus PDE2A3 (setting [1]) is 1.2 nM; on human PDE2A1 (setting [2]), 1.3 nM.

On to `CC(C)C(c1ccc(C(F)(F)F)cc1)n1nc(C(F)F)c2c(=O)[nH]c(O)nc21` (single isomer, unassigned) [Example 282, (S)- or (R)-3-(Difluoromethyl)-6-hydroxy-1-(2-methyl-1-(4-(trifluoromethyl)phenyl)propyl)-1H-pyrazolo[3,4-d]pyrimidin-4(5H)-one], for which the Ki on Rhesus PDE2A3 (setting [1]) worked out at 51 nM; on human PDE2A1 (setting [2]), 59 nM.

For `CCC(c1ccc(C(F)(F)F)cc1)n1nc(C(F)F)c2c(=O)[nH]c(O)nc21` (single isomer, unassigned) [Example 286, (S)- or (R)-3-(Difluoromethyl)-6-hydroxy-1-(1-(4-(trifluoromethyl)phenyl)propyl)-1H-pyrazolo[3,4-d]pyrimidin-4(5H)-one], the Ki at Rhesus PDE2A3 (setting [1]) came to 1.5 nM; on human PDE2A1 (setting [2]), 2.2 nM.

Take `CC(c1ccc(OC(F)(F)F)c(F)c1)n1nc(C(F)F)c2c(=O)[nH]c(O)nc21` (single isomer, unassigned) [Example 287, (R)- or (S)-3-(Difluoromethyl)-1-(1-(3-fluoro-4-(trifluoromethoxy)phenyl)ethyl)-6-hydroxy-1H-pyrazolo[3,4-d]pyrimidin-4(5H)-one]: the Ki came out at 44 nM on Rhesus PDE2A3 (setting [1]) and 38 nM on human PDE2A1 (setting [2]).

Take `CC(c1ccc(OC(F)(F)F)c(F)c1)n1nc(C(F)F)c2c(=O)[nH]c(O)nc21` (single isomer, unassigned) [Example 288, (S)- or (R)-3-(Difluoromethyl)-1-(1-(3-fluoro-4-(trifluoromethoxy)phenyl)ethyl)-6-hydroxy-1H-pyrazolo[3,4-d]pyrimidin-4(5H)-one]: the Ki on Rhesus PDE2A3 (setting [1]) came out at 1.6 nM; at human PDE2A1 (setting [2]), 2.4 nM.

With `N#CCc1nn(C(c2ccc(C(F)(F)F)cc2)C2CC2)c2nc(O)[nH]c(=O)c12` (single isomer, unassigned) [Example 296], the Ki on Rhesus PDE2A3 (setting [1]) was found to be 8.6 nM; on human PDE2A1 (setting [2]), 7.3 nM.

In the case of `CC(c1ccc(OC(F)(F)F)c(F)c1)n1nc(CC#N)c2c(=O)[nH]c(O)nc21` (single isomer, unassigned) [Example 299, (R)- or (S)-2-(1-(1-(3-Fluoro-4-(trifluoromethoxy)phenyl)ethyl)-6-hydroxy-4-oxo-4,5-dihydro-1H-pyrazolo[3,4-d]pyrimidin-3-yl)acetonitrile], the inhibition constant Ki on Rhesus PDE2A3 (setting [1]) turned out to be 21 nM; on human PDE2A1 (setting [2]), 17 nM.

Take `CC(c1ccc(OC(F)(F)F)cc1)n1nc(CO)c2c(=O)[nH]c(O)nc21` (stereo not shown) [Example 5]: the values for the Ki at Rhesus PDE2A3 (setting [3]), on Rhesus PDE2A3 (setting [1]) and at human PDE2A1 (setting [4]) were 77 nM, 126 nM and 59 nM, respectively.

As to `CC(c1ccc(C2CC2)cc1)n1nc(CO)c2c(=O)[nH]c(O)nc21` (stereo not shown) [Example 6, 1-(1-(4-Cyclopropylphenyl)ethyl)-6-hydroxy-3-(hydroxymethyl)-1H-pyrazolo[3,4-d]pyrimidin-4(5H)-one], the values for the Ki on Rhesus PDE2A3 (setting [3]) and on human PDE2A1 (setting [4]) were 78 nM and 50 nM, respectively.

On to `CC(c1ccc(C(C)(C)C)cc1)n1nc(CO)c2c(=O)[nH]c(O)nc21` (stereo not shown) [Example 7, 1-(1-(4-tert-Butylphenyl)ethyl)-6-hydroxy-3-(hydroxymethyl)-1H-pyrazolo[3,4-d]pyrimidin-4(5H)-one], for which the Ki on Rhesus PDE2A3 (setting [3]) came to 51 nM; at Rhesus PDE2A3 (setting [1]), 64 nM; on human PDE2A1 (setting [4]) it was 27 nM; on human PDE2A1 (setting [2]), 59 nM.

Regarding `O=c1[nH]c(O)nc2c1c(CO)nn2C1(c2ccc(C(F)(F)F)cc2)CCC1` [Example 26, 6-Hydroxy-3-(hydroxymethyl)-1-(1-(4-(trifluoromethyl)phenyl)cyclobutyl)-1H-pyrazolo[3,4-d]pyrimidin-4(5H)-one], the Ki on Rhesus PDE2A3 (setting [1]) worked out at 50 nM; at human PDE2A1 (setting [2]), 39 nM.

On to `O=c1[nH]c(O)nc2c1c(CO)nn2C(CF)c1ccc(C(F)(F)F)cc1` (stereo not shown) [Example 33, 1-(2-Fluoro-1-(4-(trifluoromethyl)phenyl)ethyl)-6-hydroxy-3-(hydroxymethyl)-1H-pyrazolo[3,4-d]pyrimidin-4(5H)-one], for which the Ki amounted to 50 nM on Rhesus PDE2A3 (setting [1]) and 71 nM at human PDE2A1 (setting [2]).

Consider `CC(c1ccc(OC(F)(F)F)cc1)n1nc(CF)c2c(=O)[nH]c(O)nc21` (stereo not shown) [Example 36, 3-(Fluoromethvl)-6-hydroxy-1-(1-(4-(trifluoromethoxy)phenyl)ethyl)-1H-pyrazolo[3,4-d]pyrimidin-4(5H)-one], for which the Ki came out at 11 nM at Rhesus PDE2A3 (setting [3]), 18 nM on Rhesus PDE2A3 (setting [1]), 6.5 nM at human PDE2A1 (setting [4]) and 17 nM on human PDE2A1 (setting [2]).

Regarding `Cc1ccc(C(C)n2nc(CF)c3c(=O)[nH]c(O)nc32)cc1` (stereo not shown) [Example 37, 3-(Fluoromethyl)-6-hydroxy-1-(1-p-tolylethyl)-1H-pyrazolo[3,4-d]pyrimidin-4(5H)-one], the Ki on Rhesus PDE2A3 (setting [3]) was determined as 85 nM; at human PDE2A1 (setting [4]), 44 nM.
